Experimental data reported in PubChem BioAssay (NCI).
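Following 48 hours of exposure in 96-well plates, responses at five concentrations were used to interpolate endpoints linearly. GI50 is the concentration that inhibits growth by half. TGI is the concentration that stops growth completely.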

Experiments:
Assay in all cases: growth of human tumour cells (NCI), 48 h
SW-620 colon = test system: SW-620 colon
M14 melanoma = test system: M14 melanoma
RPMI-8226 leukemia = test system: RPMI-8226 leukemia
NCI-H460 lung = test system: NCI-H460 lung
SF-539 CNS = test system: SF-539 CNS
OVCAR-3 ovarian = test system: OVCAR-3 ovarian
OVCAR-5 ovarian = test system: OVCAR-5 ovarian
KM12 colon = test system: KM12 colon
NCI/ADR-RES ovarian = test system: NCI/ADR-RES ovarian
SK-OV-3 ovarian = test system: SK-OV-3 ovarian
SK-MEL-5 melanoma = test system: SK-MEL-5 melanoma
UACC-257 melanoma = test system: UACC-257 melanoma
SF-295 CNS = test system: SF-295 CNS
NCI-H522 lung = test system: NCI-H522 lung
HS 578T breast = test system: HS 578T breast
SNB-19 CNS = test system: SNB-19 CNS
EKVX NSCLC = test system: EKVX NSCLC
ACHN renal = test system: ACHN renal
MDA-MB-231 breast = test system: MDA-MB-231 breast
HOP-92 NSCLC = test system: HOP-92 NSCLC
HT29 colon = test system: HT29 colon
NCI-H23 lung = test system: NCI-H23 lung
RXF 393 renal = test system: RXF 393 renal
A498 renal = test system: A498 renal
T-47D breast = test system: T-47D breast
LOX IMVI melanoma = test system: LOX IMVI melanoma
HCT-15 colon = test system: HCT-15 colon
IGROV1 ovarian = test system: IGROV1 ovarian

COc1cc2c(cc1OC)C(C(CCCCCC(CCC(C)C)C1NCCc3cc(OC)c(OC)cc31)CCC(C)C)NCC2 (stereo unspecified)
GI50 (SW-620 colon): 193 nM
TGI (SW-620 colon): 387 nM
GI50 (M14 melanoma): 449 nM
TGI (M14 melanoma): 1510 nM
GI50 (RPMI-8226 leukemia): 327 nM
TGI (RPMI-8226 leukemia): 974 nM
GI50 (NCI-H460 lung): 217 nM
TGI (NCI-H460 lung): 436 nM
GI50 (SF-539 CNS): 1790 nM
TGI (SF-539 CNS): 3270 nM
GI50 (OVCAR-3 ovarian): 1610 nM
TGI (OVCAR-3 ovarian): 3120 nM
GI50 (OVCAR-5 ovarian): 1690 nM
TGI (OVCAR-5 ovarian): 3170 nM
GI50 (KM12 colon): 438 nM
TGI (KM12 colon): 1260 nM
GI50 (NCI/ADR-RES ovarian): 1440 nM
TGI (NCI/ADR-RES ovarian): 2940 nM
GI50 (SK-OV-3 ovarian): 1580 nM
TGI (SK-OV-3 ovarian): 2990 nM
GI50 (SK-MEL-5 melanoma): 1650 nM
TGI (SK-MEL-5 melanoma): 3040 nM
GI50 (UACC-257 melanoma): 1630 nM
TGI (UACC-257 melanoma): 3080 nM
GI50 (SF-295 CNS): 1640 nM
TGI (SF-295 CNS): 3430 nM
GI50 (NCI-H522 lung): 1720 nM
TGI (NCI-H522 lung): 3240 nM
GI50 (HS 578T breast): 1420 nM
TGI (HS 578T breast): 3430 nM
GI50 (SNB-19 CNS): 1450 nM
TGI (SNB-19 CNS): 2870 nM
GI50 (EKVX NSCLC): 1490 nM
TGI (EKVX NSCLC): 3200 nM
GI50 (ACHN renal): 1680 nM
TGI (ACHN renal): 3170 nM
GI50 (MDA-MB-231 breast): 791 nM
TGI (MDA-MB-231 breast): 2410 nM
GI50 (HOP-92 NSCLC): 808 nM
TGI (HOP-92 NSCLC): 2460 nM
GI50 (HT29 colon): 328 nM
TGI (HT29 colon): 874 nM
GI50 (NCI-H23 lung): 1660 nM
TGI (NCI-H23 lung): 3180 nM
GI50 (RXF 393 renal): 1300 nM
TGI (RXF 393 renal): 2750 nM
GI50 (A498 renal): 1510 nM
TGI (A498 renal): 2990 nM
GI50 (T-47D breast): 1440 nM
TGI (T-47D breast): 3060 nM
GI50 (LOX IMVI melanoma): 194 nM
TGI (LOX IMVI melanoma): 408 nM
GI50 (HCT-15 colon): 274 nM
TGI (HCT-15 colon): 851 nM
GI50 (IGROV1 ovarian): 2080 nM
TGI (IGROV1 ovarian): 3940 nM
